ChEMBL document CHEMBL4266063, “Synthesis of Artemisinin-Estrogen Hybrids Highly Active against HCMV, P. falciparum, and Cervical and Breast Cancer” (ACS Med Chem Lett, 2018)

Key:
[1] = tested on: Human betaherpesvirus 5; assay: Antiviral activity against GFP-fused Human cytomegalovirus AD169 infected in HFF measured 7 days post infection; assay type: functional, organism-based; conditions: Human betaherpesvirus 5, AD169, HFF, 168 h
[2] = tested on: C-33-A; assay: Antiproliferative activity against human C33A cells after 72 hrs by MTT assay; assay type: functional, cell-based
[3] = tested on: MCF7; assay: Antiproliferative activity against human MCF7 cells after 72 hrs by MTT assay; assay type: functional, cell-based; conditions: MCF7, 72 h
[4] = tested on: MDA-MB-361; assay: Antiproliferative activity against human MDA-MB-361 cells after 72 hrs by MTT assay; assay type: functional, cell-based; conditions: MDA-MB-361, 72 h
[5] = tested on: HeLa; assay: Antiproliferative activity against human HeLa cells after 72 hrs by MTT assay; assay type: functional, cell-based
[6] = tested on: SiHa; assay: Antiproliferative activity against human SiHa cells after 72 hrs by MTT assay; assay type: functional, cell-based
[7] = tested on: MDA-MB-231; assay: Antiproliferative activity against human MDA-MB-231 cells after 72 hrs by MTT assay; assay type: functional, cell-based; conditions: MDA-MB-231, 72 h
[8] = tested on: T47D; assay: Antiproliferative activity against human T47D cells after 72 hrs by MTT assay; assay type: functional, cell-based
[9] = tested on: Plasmodium falciparum; assay: Antimalarial activity against synchronized ring stage of Plasmodium falciparum 3D7 infected in human erythrocytes after 72 hrs by SYBR Green1 dye based fluorescence assay; assay type: functional, organism-based; conditions: 3D7, 72 h
[10] = tested on: HFF; assay: Cytotoxicity against HFF measured over 7 days by microscopic analysis; assay type: cell-based; conditions: human, 168 h
[11] = tested on: Plasmodium falciparum; assay: Potency index, ratio of chloroquine EC50 to test compound EC50 for synchronized ring stage of Plasmodium falciparum 3D7 infected in human erythrocytes; assay type: functional

SMILES | EC50 [1] | EC50 [2] | EC50 [3] | EC50 [4] | EC50 [5] | EC50 [6] | EC50 [7] | EC50 [8] | EC50 [9] | Activity [10] | Ratio EC50 [11]
C[C@@H]1CC[C@H]2[C@@H](C)C(=O)O[C@@H]3O[C@@]4(C)CC[C@@H]1[C@]32OO4 [ARTEMISININ] | > 10000 nM | – | – | – | – | – | – | – | – | – | –
C[C@H]1[C@H](OC(=O)CCC(=O)O)O[C@@H]2O[C@@]3(C)CC[C@H]4[C@H](C)CC[C@@H]1[C@@]24OO3 [ARTESUNATE] | – | 1830 nM | 4210 nM | 2270 nM | 12000 nM | > 30000 nM | 10000 nM | 2220 nM | 8.9 nM | – | –
C[C@H]1[C@@H](O)O[C@@H]2O[C@@]3(C)CC[C@H]4[C@H](C)CC[C@@H]1[C@@]24OO3 [ARTENIMOL] | > 10000 nM | 1710 nM | 8240 nM | 1710 nM | 10500 nM | 29800 nM | 10700 nM | 4600 nM | – | – | –
C[C@H]1[C@H](OC(=O)CCC(=O)OC[C@H]2C[C@H]3[C@@H]4CCc5cc(OCc6ccccc6)ccc5[C@H]4CC[C@]3(C)[C@H]2O)O[C@@H]2O[C@@]3(C)CC[C@H]4[C@H](C)CC[C@@H]1[C@@]24OO3 | 380 nM | 1730 nM | 760 nM | 200 nM | > 30000 nM | 28400 nM | 2300 nM | 220 nM | 34.2 nM | Non-Toxic | –
C[C@]12CC[C@@H]3c4ccc(OCc5ccccc5)cc4CC[C@H]3[C@@H]1C[C@H](CO)[C@@H]2O | – | 12200 nM | 12900 nM | 2770 nM | 12800 nM | 7750 nM | 12800 nM | 8320 nM | 17200 nM | – | –
COc1ccc2c(c1)CC[C@@H]1[C@@H]2CC[C@]2(C)C(=O)[C@H](N=[N+]=[N-])C[C@@H]12 | – | > 30000 nM | > 30000 nM | > 30000 nM | > 30000 nM | > 30000 nM | > 30000 nM | > 30000 nM | > 50000 nM | – | –
COc1ccc2c(c1)CC[C@@H]1[C@@H]2CC[C@]2(C)C(=O)[C@H](n3cc(CO[C@H]4O[C@@H]5O[C@@]6(C)CC[C@H]7[C@H](C)CC[C@@H]([C@H]4C)[C@@]57OO6)nn3)C[C@@H]12 | 240 nM | 2050 nM | 1770 nM | 170 nM | 15400 nM | 28900 nM | 1780 nM | 160 nM | 13.1 nM | Non-Toxic | –
COc1ccc2c(c1)CC[C@@H]1[C@@H]2CC[C@]2(C)[C@@H](O)[C@H](NC(=O)O[C@H]3O[C@@H]4O[C@@]5(C)CC[C@H]6[C@H](C)CC[C@@H]([C@H]3C)[C@@]46OO5)C[C@@H]12 | 230 nM | 570 nM | 1020 nM | 690 nM | 1650 nM | 6210 nM | 1850 nM | 1170 nM | 7.7 nM | Non-Toxic | –
COc1ccc2c(c1)CC[C@@H]1[C@@H]2CC[C@]2(C)[C@@H](O)[C@H](NC(=O)CCC(=O)O[C@@H]3O[C@@H]4O[C@@]5(C)CC[C@H]6[C@H](C)CC[C@@H]([C@H]3C)[C@@]46OO5)C[C@@H]12 | 2440 nM | 870 nM | 4690 nM | 640 nM | 11400 nM | 26000 nM | 6890 nM | 740 nM | 3.8 nM | Non-Toxic | 2
C[C@H]1[C@@H](CC(=O)OC[C@H]2C[C@H]3[C@@H]4CCc5cc(OCc6ccccc6)ccc5[C@H]4CC[C@]3(C)[C@H]2O)O[C@@H]2O[C@@]3(C)CC[C@H]4[C@H](C)CC[C@@H]1[C@@]24OO3 | 220 nM | 150 nM | 450 nM | 180 nM | 14200 nM | 16100 nM | 860 nM | 930 nM | 129 nM | Non-Toxic | –
COc1ccc2c(c1)CC[C@@H]1[C@@H]2CC[C@]2(C)[C@@H](O)[C@H](N)C[C@@H]12 | – | 13200 nM | 11900 nM | 4580 nM | 13300 nM | 17400 nM | 16000 nM | 5560 nM | – | – | –
